Laboratory results: US20170291890A1 (Epizyme, Inc., priority 2014, published 2017)

Tests used:
KDM4C = target: T1, KDM4C (Homo sapiens, UniProt Q9H3R0); test: KDM4C Assay (SAMDI mass spectrometry demethylase assay); format: biochemical; details: N-terminal GST-tagged KDM4C 2-372; class symbols; read-out: 4C IC50
T1 construct: N-terminal GST-tagged KDM4C^2-372 was purchased from BPS Biosciences; GST (N); purchased BPS Biosciences
T1 sequence (Q9H3R0 2-372): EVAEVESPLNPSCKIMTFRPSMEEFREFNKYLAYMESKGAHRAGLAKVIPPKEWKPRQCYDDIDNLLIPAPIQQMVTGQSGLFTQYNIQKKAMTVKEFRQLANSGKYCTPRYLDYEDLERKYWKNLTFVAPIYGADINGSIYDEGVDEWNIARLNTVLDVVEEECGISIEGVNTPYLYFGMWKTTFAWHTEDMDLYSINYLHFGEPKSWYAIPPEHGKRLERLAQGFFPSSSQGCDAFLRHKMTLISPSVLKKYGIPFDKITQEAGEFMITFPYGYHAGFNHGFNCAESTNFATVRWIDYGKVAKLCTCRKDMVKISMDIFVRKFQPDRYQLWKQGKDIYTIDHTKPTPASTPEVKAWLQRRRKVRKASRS
In short: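 GST-tagged KDM4C 2-372 (5 nM) preincubated 30 min with compound, then H3K9me3 biotinylated peptide (500 nM) and 2-oxoglutarate (15 μM) added in HEPES pH 8.0 with ascorbate, Fe(II), TCEP; 150 min at 25 °C, formic-acid quench. Conversion by SAMDI mass spectrometry from substrate/product peak AUC; IC50 from dose-response.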

KDM4A = target: T2, KDM4A (Homo sapiens, UniProt O75164); test: KDM4A Assay (SAMDI mass spectrometry demethylase assay); format: biochemical; details: N-terminal His-tagged KDM4A 1-350; class symbols; read-out: 4A IC50
T2 construct: N-terminal His-tagged KDM4A^1-350 was purchased from BPS Biosciences; His (N); purchased BPS Biosciences
T2 sequence (O75164 1-350): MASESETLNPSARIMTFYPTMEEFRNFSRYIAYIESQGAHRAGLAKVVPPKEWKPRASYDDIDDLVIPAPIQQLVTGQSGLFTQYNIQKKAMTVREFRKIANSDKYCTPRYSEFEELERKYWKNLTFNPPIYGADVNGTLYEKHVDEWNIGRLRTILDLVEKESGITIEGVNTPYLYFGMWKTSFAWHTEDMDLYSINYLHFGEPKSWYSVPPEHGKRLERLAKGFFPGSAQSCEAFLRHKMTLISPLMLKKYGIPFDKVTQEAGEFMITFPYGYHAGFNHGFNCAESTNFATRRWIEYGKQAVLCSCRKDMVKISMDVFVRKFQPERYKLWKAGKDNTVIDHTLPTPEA
Procedure: N-terminal His-tagged KDM4A^1-350 was purchased from BPS Biosciences. Peptides were synthesized by BioPeptide and all other reagents were purchased from Sigma-Aldrich at the highest level of purity possible. Assays were performed in a 50 μL volume in 384-well V-bottom polypropylene microplates (Greiner) at 25° C. Optimized 1× assay buffer was 50 mM HEPES (pH=8.0), 100 μM sodium ascorbate, 20 mM NaCl, 10 μM ammonium iron sulfate, 1 mM tris(2-carboxyethyl)phosphine (TCEP), 0.002% Tween-20, and 0.005% BSG. For compound screening, 35 μL of KDM4A^1-350 (final concentration, f.c.=5 nM) was added using a Multidrop Combi and preincubated with 1 μL of test compound (f.c.=10 μM) for 30 minutes and subsequently 15 μL of peptide with the following sequence NH2-ARTKQTAR(Kme2)STGGKAPRKQLA(K-Ahx-Biotin)-amide (f.c.=600 nM) and 2-oxoglutarate (f.c.=5 μM) was added by Multidrop Combi to begin the reaction. Reactions proceeded for 120 minutes and were stopped by the addition of 5 μL of formic acid (f.c.=0.5%) using a Multidrop Combi and then analyzed by SAMDI Tech Inc.
SAMDI Tech analyzed all reactions using self-assembled monoloayer desorption/ionization technology as previously described (Gerard-Levin Z A, Scholle M D, Eisenberg A H, et al.: High-throughput screening of small molecule libraries using SAMDI mass spectrometry. ACS Comb Sci 2011; 13:347-350). Briefly, a 2 μL sample of the stopped demethylase reactions were transferred to a SAMDI array coated with 384 biotin-neutravidin spots using a 384-channel pipet station. The SAMDI arrays were incubated for 1 h in a humidified chamber, followed by washing of the surface with deionized ultra-filtered water (DIUF) and drying under nitrogen. A matrix of 30 mg/ml 2′,4′,6′-Trihydroxyacetophenone monohydrate (THAP) in acetone was applied using a TPP Mosquito 1.2 μL tip by dispensing 50 nL on each of the 384 spots on the array. SAMDI-MS was run using acquisition method ReflectorPositiveUTX. The % conversion of substrate to product was calculated using the AUC of the substrate and product peptide peaks.
An IC50 value was determined by contacting various concentrations of a test compound with one of the KDM4A, KDM4C or KDMSC enzyme constructs and plotting a dose-response curve which associates the amount of inhibition of the enzyme relative to the concentration of the test compound. From the curve, the IC50 value (which represents the concentration of the test compound necessary to inhibit maximal enzymatic activity by 50%) was determined. Additionally, the slope of the linear range of the plotted curve, which indicates the speed with which the curve rises between the minimum and maximum, was calculated.

SMILES | IC50 (KDM4C) [nM] | IC50 (KDM4A) [nM]
CN(C)CCCn1cc(-c2ccccc2)c(Nc2cnccc2C(=O)O)n1 [Compound 51, 3-((1-(3-(dimethylamino)propyl)-4-phenyl-1H-pyrazol-3-yl)amino) isonicotinic acid] | 100 to 1000 | 1 to 100
O=C(O)c1ccncc1Nc1nn(-c2ccccc2)cc1-c1ccccc1 [Compound 42, 3-((1,4-diphenyl-1H-pyrazol-3-yl)amino)isonicotinic acid] | 100 to 1000 | 100 to 1000
O=C(O)c1ccncc1Nc1cn(-c2ccccc2)nc1-c1ccccc1 [Compound 41, 3-((1,3-Diphenyl-1H-pyrazol-4-yl)amino)isonicotinic acid] | 100 to 1000 | 100 to 1000
Cc1cn(-c2ccccc2)c(Nc2cnccc2C(=O)O)n1 [Compound 2] | 100 to 1000 | 100 to 1000
CC(C)n1nc(-c2ccccc2)cc1Nc1cnccc1C(=O)O [Compound 22, 3-((1-Isopropyl-3-phenyl-1H-pyrazol-5-yl)amino)isonicotinic acid] | 100 to 1000 | 100 to 1000
CN(C)CCCn1ncc(-c2ccccc2)c1Nc1cnccc1C(=O)O [Compound 52, 3-((1-(3-(dimethylamino)propyl)-4-phenyl-1H-pyrazol-5-yl)amino) isonicotinic acid] | 10000 to 100000 | 1000 to 10000
O=C(O)c1ccncc1Nc1c(-c2ccc(F)cc2)cnn1CCN1CCC(F)(F)CC1 [Compound 46, 3-((1-(2-(4,4-difluoropiperidin-1-yl)ethyl)-4-(4-fluorophenyl)-1H-pyrazol-5-yl)amino) isonicotinic acid] | 10000 to 100000 | 1000 to 10000
Cc1n[nH]c(C)c1Nc1cnccc1C(=O)O [Compound 16, 3-((3,5-Dimethyl-1H-pyrazol-4-yl)amino)isonicotinic acid] | 10000 to 100000 | 1000 to 10000
Cn1nc(-c2ccccc2)cc1Nc1cnccc1C(=O)O [Compound 6] | 1000 to 10000 | 100 to 1000

Other lines, results leading:

IC50 (KDM4C) [nM] | IC50 (KDM4A) [nM] | SMILES
1000 to 10000 | 100 to 1000 | Cc1nn(-c2ccc(O)cc2)c(C)c1Nc1cnccc1C(=O)O [Compound 76, 3-((1-(4-hydroxyphenyl)-3,5-dimethyl-1H-pyrazol-4-yl)amino)isonicotinic acid]
1000 to 10000 | 100 to 1000 | Cc1nn(C2CCN(CC(F)(F)F)CC2)cc1Nc1cnccc1C(=O)O [Compound 99, 3-(3-methyl-1-(1-(2,2,2-trifluoroethyl)piperidin-4-yl)-1H-pyrazol-4-ylamino)isonicotinic acid]
100 to 1000 | 100 to 1000 | Cc1nn(C2CCCNCC2)cc1Nc1cnccc1C(=O)O (single isomer, unassigned) [Compound 114]
100 to 1000 | 100 to 1000 | Cc1cc(Nc2cnccc2C(=O)O)n(-c2ccccc2)n1 [Compound 61, 3-((3-methyl-1-phenyl-1H-pyrazol-5-yl)amino) isonicotinic acid]
1000 to 10000 | 1000 to 10000 | Cc1nn(C2CCN(C(=O)c3ccccc3)CC2)cc1Nc1cnccc1C(=O)O [Compound 97, 3-(1-(1-benzoylpiperidin-4-yl)-3-methyl-1H-pyrazol-4-ylamino) isonicotinic acid]
100 to 1000 | 1 to 100 | Cc1nn(-c2ccccc2)c(C)c1Nc1cnccc1C(=O)O [Compound 77, 3-((3,5-dimethyl-1-phenyl-1H-pyrazol-4-yl)amino)isonicotinic acid]
100 to 1000 | 1 to 100 | Cc1c(Nc2cnccc2C(=O)O)cnn1C1CCN(C2CCC2)CC1 [Compound 96]
1000 to 10000 | 100 to 1000 | COc1ccc(-n2nc(C)c(Nc3cnccc3C(=O)O)c2C)cc1 [Compound 75, 3-((1-(4-methoxyphenyl)-3,5-dimethyl-1H-pyrazol-4-yl)amino)isonicotinic acid]
100 to 1000 | 100 to 1000 | Cc1nn(C2CCCN(C)CC2)cc1Nc1cnccc1C(=O)O (stereo not drawn) [Compound 111, 3-(3-methyl-1-(1-methylazepan-4-yl)-1H-pyrazol-4-ylamino) isonicotinic acid]
